Measurements as given in patent US20240317735A1, “HYDROISOQUINOLINE OR HYDRONAPHTHYRIDINE COMPOUNDS FOR THE TREATMENT OF AUTOIMMUNE DISEASE” (Hoffmann-La Roche Inc., priority 2020, published 2024).
Like-named read-outs stand apart in the source and are kept apart here.

Columns and labels:
[1] = Single dose pharmacokinetics (PK) study in male Wister-Han rats; type: in vivo, rat; conditions: for F: dose normalized AUC0-last PO 10 mg/kg vs IV 2 mg/kg; for AUC(0-t) / Cmax / clearance / half-life / Vd: rat, plasma; for Vd: read-out: Vss
Procedure: Pharmacokinetic properties of selected compounds were assessed by single dose PK studies in Male Wister-Han Rats (vendor: Beijing Vital River Laboratory Animal Technology Co., Ltd). Briefly, two groups of animals were administered a single dose of respective compound intravenously (IV, bolus) at 2 mg/kg or orally (PO, by gavage) at 10 mg/kg. Blood samples (approximately 150 μL) were collected via Jugular vein at 5 min (only for IV), 15 min, 30 min, 1 h, 2 h, 4 h, 7 h and 24 h post-dose. Blood samples were placed into tubes containing EDTA-K2 anticoagulant and centrifuged at 3000 rpm for 15 min at 4° C. to separate plasma from the samples. After centrifugation, the resulting plasma was transferred to clean tubes for bioanalysis with LC/MS/MS. The pharmacokinetic parameters were calculated using non-compartmental analysis. The volume of distribution (Vss), half-life (T1/2) and clearance (CL) were obtained based on the plasma concentration-time curve after IV dose. The peak concentration (Cmax) was recorded directly from experimental observations after PO dose. The area under the plasma concentration-time curve (AUC0-last) was calculated using the linear trapezoidal rule up to the last detectable concentration. The bioavailability (F) was calculated based on the dose normalized AUC0-last after IV and PO dose.
The Vss of a drug represents the degree to which a drug is distributed in body tissue rather than the plasma. Vss is directly proportional with the amount of drug distributed into tissue. A higher Vss indicates a greater amount of tissue distribution.

[2] = tested on: embryonic stem cells (D3) and 3T3 fibroblasts; test: mouse Embryonic Stem Cell Test (mEST); type: cell-based; conditions: <0.5 negative, >0.6 positive, 0.5-0.6 borderline
Text: The in vitro mouse Embryonic Stem Cell Test (mEST) assay is an implemented routine assay at Roche. The original EST was developed by Horst Spielmann and his group in 1997 as an in vitro model for the screening of embryotoxicity, based on a blastocyst-derived permanent embryonic mouse ESC (mESC) D3 cell line derived from mouse 129 strains and was validated by European Centre for the Validation of Alternative Methods (ECVAM).
We further optimized and modified the approach allowing for the application of the assay to pharmaceutical compounds.
The cytotoxicity (inhibition of growth) of 3T3 fibroblasts, which represents differentiated cells and the cytotoxicity of undifferentiated embryonic stem cells (D3) after 10 days of substance treatment serve as two assay endpoints. This is determined by the use of dehydrogenase enzymes, which are present in the intact mitochondria of living cells to convert yellow soluble substrate 3-(4,5-dimethythiazol-2-yl)-2,5-diphenyl tetrazolium bromide (MTT) into a dark blue insoluble formazan product, which gets sequestered within the cells and is detected quantitatively using an absorbance reader (570 nm) after solubilizing the cell membrane.
The third endpoint is the inhibition of differentiation of ES cells into myocards which are cardiac muscle cells after 10 days of treatment. The beating of this cells is evaluated by microscopy.
• 1) Cell passage with trypsin 0.05% EDTA for D3 cells. • 2) Assembly of the cell suspension: dilute cells to 2.5×10^4/mL with 18 ml media (for each test) in 50 mL Falcon tubes. • 3) Prepare the petri dishes (PD): add 5-10 mL sterile Dulbecco's PBS (Gibco) into each dish bottom, distribute over the whole dish. • 4) Dilution series of test compound in Eppendorf tubes: add 5 μL of compound (1:400 dilution) and 5 μL control solution (DMSO) to 2 mL cell suspension, vortex. • 5) Preparation of hanging drops in petridishes: vortex tube, aspirate suspension with automatic pipette and multi-dispense 20 μL drops onto the lid of the petri dish, add 2 mL in total in a concentric circle of drops (˜100 drops); quickly but smoothly turn the cover and put on PD; incubate for 3 days at 37° C./5% CO2.
• 1) Dilution series of compound in 14 mL PP tubes • 6 tubes for the concentrations; fill with 5 mL assay media • 1 tube for DMSO (solvent control) fill with 5 mL assay media • 2) Dilution series of compound in Eppendorf tubes • Add 12.5 μL of compound (1:400 dilution) and 12.5 μL control solution, vortex • 3) Transfer of embryoid bodies in a bacterial Petri dish • Carefully turn PD lid, check the drops for fungus contamination • Rinse several times the drops down with 5 mL of the prepared solution • Transfer in a bacterial petri dish Incubate for 3 days at 37° C./5% CO2 […]

[3] = IV 2 mg/kg, read-out: IV AUC0-last
[4] = PO 10 mg/kg, read-out: PO AUC0-last

SMILES | F [1] [%] | AUC(0-t) [1, 3] [ng·h/mL] | Cmax ([1]; PO 10 mg/kg) [ng/mL] | AUC(0-t) [1, 4] [ng·h/mL] | clearance ([1]; IV 2 mg/kg) [mL/min/kg] | half-life ([1]; IV 2 mg/kg) [h] | Vd ([1]; IV 2 mg/kg) [L/kg] | Predictive scores D12_3 [2]
CO[C@@H]1CN(c2ccc3c(c2)[C@@H](C)CN(c2cc(C)nc4c2cnn4C)C3)C[C@H]1N [Example 23, (3R,4R)-4-methoxy-1-[(4R)-2-(1,6-dimethylpyrazolo[3,4-b]pyridin-4-yl)-4-methyl-3,4-dihydro-1H-isoquinolin-6-yl]pyrrolidin-3-amine] | 73 | 7550 | 1600 | 27500 | 3.7 | 10.5 | 2.7 | –
C[C@H]1CN(c2ccnc3c2cnn3C)Cc2ccc(OC[C@H]3CNCCN3)cc21 [Example 18, (4R)-4-methyl-2-(1-methylpyrazolo[3,4-b]pyridin-4-yl)-6-[[(2R)-piperazin-2-yl]methoxy]-3,4-dihydro-1H-isoquinoline] | – | – | – | – | – | – | – | 0.11
CO[C@@H]1CN(c2ccc3c(c2)[C@@H](C)CN(c2ccnc4c2cnn4C)C3)C[C@H]1N [Example 20, (3R,4R)-4-methoxy-1-[(4R)-4-methyl-2-(1-methylpyrazolo[3,4-b]pyridin-4-yl)-3,4-dihydro-1H-isoquinolin-6-yl]pyrrolidin-3-amine] | 60 | 5480 | 1140 | 16500 | 6 | 3.3 | 1.5 | 0.49
C[C@H]1CN(c2ccnc3c2cnn3C)Cc2ccc(N3CCNCC3)cc21 [Example 1, (4R)-4-methyl-2-(1-methylpyrazolo[3,4-b]pyridin-4-yl)-6-piperazin-1-yl-3,4-dihydro-1H-isoquinoline] | 113 | 1290 | 474 | 7270 | 24 | 6.9 | 11.2 | –
CO[C@@H]1CN(c2ccc3c(n2)[C@@H](C)CN(c2cc(C)nc4c2cnn4C)C3)C[C@H]1N [Example 63, (3R,4R)-4-methoxy-1-[(8S)-6-(1,6-dimethylpyrazolo[3,4-b]pyridin-4-yl)-8-methyl-7,8-dihydro-5H-1,6-naphthyridin-2-yl]pyrrolidin-3-amine] | 98 | 80700 | 22200 | 394000 | 0.26 | 18.3 | 0.38 | 0.43
C[C@H]1CN(c2ccnc3c2cnn3C)Cc2ccc(OC[C@@H]3CNCCN3)cc21 [Example 19, (4R)-4-methyl-2-(1-methylpyrazolo[3,4-b]pyridin-4-yl)-6-[[(2S)-piperazin-2-yl]methoxy]-3,4-dihydro-1H-isoquinoline] | 32 | 887 | 102 | 1410 | 34 | 8.9 | 16 | 0.05
